In paper PMC4130903 (Bioorganic & medicinal chemistry letters, 2014):
Where two headings read alike, the source gives them in different places.

Key:
NTSR1 [1] = target: T1, NTSR1 (Homo sapiens, UniProt P30989); assay: Ca2+ assay in the presence and absence of antagonist 5; assay type: cell-based; conditions: in the presence of antagonist 5 (SR 48692); Figure S1
NTSR1 [2] = target: T1, NTSR1; assay type: cell-based; conditions: for NTSR1 activity (in words): Ca2+ mobilization assay; for Emax: % of the response obtained with the NT(8–13) peptide, average ± SEM, n = 4
NTSR1 [3] = target: T1, NTSR1; conditions: Wyeth compound 1, literature value; cited from earlier work
NTSR1 [4] = target: T1, NTSR1; conditions: NTSR1 antagonists; cited from earlier work

T1 sequence (P30989 whole entry, species assumed): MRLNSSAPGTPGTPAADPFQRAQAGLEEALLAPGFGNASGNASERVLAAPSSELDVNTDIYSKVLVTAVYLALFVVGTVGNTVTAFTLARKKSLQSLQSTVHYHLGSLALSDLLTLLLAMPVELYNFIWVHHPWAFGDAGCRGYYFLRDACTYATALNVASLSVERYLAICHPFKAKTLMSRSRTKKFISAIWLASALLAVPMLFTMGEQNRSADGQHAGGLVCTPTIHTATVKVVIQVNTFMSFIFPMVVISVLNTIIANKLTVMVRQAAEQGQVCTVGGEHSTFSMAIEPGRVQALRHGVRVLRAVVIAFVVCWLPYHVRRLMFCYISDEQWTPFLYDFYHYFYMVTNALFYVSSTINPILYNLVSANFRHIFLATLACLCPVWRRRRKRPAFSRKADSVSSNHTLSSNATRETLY

For CC(C)C[C@H](NC(=O)Cn1ccc2ccc(-c3cnc4ccccc4c3)cc21)C(=O)O [Compound 39], the “NTSR1 stimulatory activity in the presence of antagonist 5” value (“NTSR1 stimulatory activity” below) (NTSR1 [1]) was “abolished”.
In the case of CC(C)C[C@H](NC(=O)Cn1ccc2cc(-c3cnc4ccccc4c3)ccc21)c1nn[nH]n1 [Compound 27], the “NTSR1 stimulatory activity” value (NTSR1 [1]) is reported as “abolished”.
In the case of CC(C)C[C@@H](NC(=O)Cn1ccc2cc(-c3cnc4ccccc4c3)ccc21)C(=O)O [Compound 32], the “NTSR1 activity (in words)” value (NTSR1 [2]) is reported as “no activity”.
With COC(=O)[C@H](CC(C)C)NC(=O)Cn1ccc2cc(-c3cccc4ccccc34)ccc21 [Compound 34] the “NTSR1 activity (in words)” value (NTSR1 [2]) was “abolished activity”.
In the case of CC(C)C[C@H](NC(=O)Cn1ccc2cc(-c3cncc4ccccc34)ccc21)C(=O)O [Compound 21], the “NTSR1 stimulatory activity” value (NTSR1 [1]) is reported as “abolished”.
For CC(C)C[C@@H](CO)NC(=O)Cn1ccc2cc(-c3cnc4ccccc4c3)ccc21 [Compound 26], the “NTSR1 activity (in words)” value (NTSR1 [2]) was “loss of activity”.
With COC(=O)[C@H](CC(C)C)NC(=O)Cn1ccc2cc(-c3cnc4ccccc4c3)ccc21 [Compound 25] the “NTSR1 activity (in words)” value (NTSR1 [2]) was “loss of activity”.
For CC(C)C[C@@H](NC(=O)Cn1ccc2cc(NS(=O)(=O)c3cccc4cccnc34)ccc21)C(=O)O [Compound 1, reference compound], the EC50 (NTSR1 [2]) is listed as > 100 µM and the Emax (NTSR1 [3]) is listed as 17%.
Work on O=C(Cn1ccc2cc(-c3cnc4ccccc4c3)ccc21)N[C@@H](Cc1ccccc1)C(=O)O [Compound 31] yielded an EC50 (NTSR1 [2]) of 4 µM.
In the case of CC(C)C[C@H](NC(=O)Cn1ccc2ccc(-c3cccc4ccccc34)cc21)C(=O)O [Compound 40], the “NTSR1 stimulatory activity” value (NTSR1 [1]) is reported as “abolished”.
In the case of COc1cccc(OC)c1-c1cc(C(=O)NC2(C(=O)O)C3CC4CC(C3)CC2C4)nn1-c1ccnc2cc(Cl)ccc12 (stereo not drawn) [Compound 5], the Binding affinity (NTSR1 [4]) is given as “low nanomolar range”.
In the case of CC(C)C[C@H](NC(=O)Cn1ccc2cc(-c3cccc4ccccc34)ccc21)C(=O)O [Compound 17], the EC50 (NTSR1 [2]) is reported as 3 µM, the Emax (NTSR1 [2]) is reported as 100% and the “NTSR1 stimulatory activity” value (NTSR1 [1]) is reported as “abolished”.
For CC(C)C[C@H](NC(=O)Cn1ccc2cc(-c3cnc4ccccc4c3)ccc21)C(=O)O [Compound 8], the Emax (NTSR1 [2]) was 100%, the “Potency improvement compared to parent compound 1” value (NTSR1 [2]; EC50 versus compound 1 (EC50 = 178 μM)) was ~ 90 fold and the “NTSR1 stimulatory activity” value (NTSR1 [1]) was “abolished”.
With CC(C)C[C@H](NC(=O)Cn1ccc2cc(NS(=O)(=O)c3cccc4cccnc34)ccc21)C(=O)O [Compound 7] the “NTSR1 stimulatory activity” value (NTSR1 [1]) was “abolished”.
With CC(C)C[C@H](NC(=O)Cn1ccc2ccccc21)C(=O)O [Compound 12] the “NTSR1 stimulatory activity” value (NTSR1 [1]) was “abolished”.
For COc1cccc(OC)c1-c1cc(C(=O)NC2(C(=O)O)C3CC4CC(C3)CC2C4)nn1-c1ccc(C(=O)N(C)CCCN(C)C)cc1C(C)C (stereo not drawn) [Compound 6], the Binding affinity (NTSR1 [4]) is listed as “low nanomolar range”.
